The nature of data set [1]: Maximum plasma concentration from in vivo pharmacokinetic studies after therapeutic dosing. The settings on record: human, the literature Cmax (ng/mL) of Table 2 expressed in µM. The text has this: As Cmax the (geometric) mean or median maximum plasma concentrations obtained from previous in vivo pharmacokinetic studies after therapeutic dosing was used.
For data set [2] the following is noted: cited from earlier work.
Data set [3] addresses T1, human OCT1 (Homo sapiens, UniProt O15245).
T1 construct: host or cells: HEK293, baculovirus transduction (CMV promoter), transient
T1 sequence (O15245 1-554): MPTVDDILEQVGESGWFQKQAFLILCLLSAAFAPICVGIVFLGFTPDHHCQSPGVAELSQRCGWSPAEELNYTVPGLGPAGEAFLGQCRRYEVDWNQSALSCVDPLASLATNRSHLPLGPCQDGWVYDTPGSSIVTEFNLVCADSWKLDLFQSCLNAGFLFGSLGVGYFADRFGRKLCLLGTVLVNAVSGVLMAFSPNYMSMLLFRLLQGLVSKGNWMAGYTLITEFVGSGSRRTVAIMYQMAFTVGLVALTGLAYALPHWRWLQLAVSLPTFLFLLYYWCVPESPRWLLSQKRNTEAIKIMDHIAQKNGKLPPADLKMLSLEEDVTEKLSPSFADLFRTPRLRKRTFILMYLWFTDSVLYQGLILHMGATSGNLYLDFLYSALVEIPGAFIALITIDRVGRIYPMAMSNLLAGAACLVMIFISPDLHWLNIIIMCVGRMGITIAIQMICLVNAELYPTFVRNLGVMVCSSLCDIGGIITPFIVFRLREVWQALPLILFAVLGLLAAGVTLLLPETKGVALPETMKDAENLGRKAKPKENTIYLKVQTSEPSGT
As to the kind of experiment: Inhibition of OCT1-mediated ASP uptake in transduced HEK293 cells. The format is cell-based. The settings on record: 50 µM anti-malarial, 10 µM ASP, 10 min, 37 °C; relative to solvent control fixed at 100%. As for the experimental part:
(§1) HEK293 cells were modified to transiently express (a combination of) human OCT1, OCT2, MATE1, MATE2-K, or eYFP. Briefly, cDNA of the respective genes was cloned downstream of a CMV promoter into a baculovirus, of which passage three was used to transduce HEK293 cells. These cells were seeded in poly-D-lysine coated 24- or 96-wells plates and grown in a 37 °C incubator at 5% CO2. Growth was initiated at ~ 25% confluency using 375 or 125 μL cell and complete medium (DMEM + GlutaMAX™-I supplemented with 10% fetal bovine serum) suspension per well, respectively. After 24 h, cells were transduced with 30 µL virus (10 µL virus + 20 µL complete medium in case of 96-wells plates) or 2 × 15 µL virus for cells that required simultaneous expression of two transporters. Finally, 195 µL sodium butyrate (45 µL for 96-wells plates) was added to a final concentration of 2 mM to enhance protein expression.
AMO (10 mM), ASP (1 mM), CQ (10 mM), PQ (10 mM) and PG (10 mM) were dissolved in MilliQ water. ART (10 mM), ATO (10 mM), DHA (10 mM), LUM (10 mM), MQ (10 mM), NMQ (20 mM), PYR (10 mM), QN (10 mM) were dissolved in DMSO. All compound stocks were stored at − 20 °C. Inhibition of OCT1- or OCT2-mediated ASP uptake by anti-malarials was performed in poly-D-lysine coated 96-wells plates 2 or 3 days following HEK293 cell transduction. In short, cells were washed with 125 µL 37 °C HBSS containing 10 mM HEPES, pH 7.4. Then, a 50 µL mixture of ASP (10 µM) and anti-malarial compound (25, 50 or 100 µM) in HBSS buffer (pH 7.4) was added to each well and incubated for 10 min at 37 °C. ASP transport was stopped by washing with 125 µL ice-cold HBSS-HEPES buffer supplemented with 0.5% BSA. Following a second wash with 125 µL ice-cold HBSS-HEPES buffer, cells were lysed with 125 µL 1 M NaOH and ASP was excited at a wavelength of 485 nm and fluorescence was detected at an emission wavelength of 535 nm using the Victor X3 multimode plate reader.
For each compound, a range of seven concentrations was used to determine the concentration at which ASP uptake was inhibited half maximally (IC50). At least three independent experiments (4 for QN) were performed for each drug in triplicate as described above. Inhibition curves were plotted by nonlinear regression analyses of the data using GraphPad Prism version 5.03. […] To generate the final dose–response inhibition curve per anti-malarial, percentage of uptake was averaged for each drug concentration per experiment and the resulting mean ± SEM corresponding to three or four independent experiments were plotted.

Data set [4] addresses T2, human OCT2 (Homo sapiens, UniProt O15244).
T2 construct: host or cells: HEK293, baculovirus transduction (CMV promoter), transient
T2 sequence (O15244 1-555): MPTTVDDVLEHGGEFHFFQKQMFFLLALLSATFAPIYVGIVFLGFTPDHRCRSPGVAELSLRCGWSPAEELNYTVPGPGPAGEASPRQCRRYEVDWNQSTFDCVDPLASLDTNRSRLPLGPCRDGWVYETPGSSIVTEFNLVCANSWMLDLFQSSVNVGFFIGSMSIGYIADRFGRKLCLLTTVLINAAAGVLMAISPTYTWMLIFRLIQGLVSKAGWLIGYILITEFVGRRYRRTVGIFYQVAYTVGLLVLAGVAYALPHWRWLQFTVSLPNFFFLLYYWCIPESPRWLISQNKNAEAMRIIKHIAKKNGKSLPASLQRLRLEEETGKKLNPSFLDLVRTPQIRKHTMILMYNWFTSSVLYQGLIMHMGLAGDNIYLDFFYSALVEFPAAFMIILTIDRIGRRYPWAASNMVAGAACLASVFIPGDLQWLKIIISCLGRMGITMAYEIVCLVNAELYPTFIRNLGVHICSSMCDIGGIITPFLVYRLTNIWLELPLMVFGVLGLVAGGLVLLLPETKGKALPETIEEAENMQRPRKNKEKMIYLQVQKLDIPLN
As to the kind of experiment: Inhibition of OCT2-mediated ASP uptake in transduced HEK293 cells. In kind it is cell-based. As for the experimental part: as §1, with “Growth was initiated at ~ 25% confluency using 375 or 125 μL cell and complete medium (DMEM + GlutaMAX™-I supplemented with 10% fetal bovine serum) suspension per well, respectively.” left out
AMO (10 mM), ASP (1 mM), CQ (10 mM), PQ (10 mM) and PG (10 mM) were dissolved in MilliQ water. ART (10 mM), ATO (10 mM), DHA (10 mM), LUM (10 mM), MQ (10 mM), NMQ (20 mM), PYR (10 mM), QN (10 mM) were dissolved in DMSO. All compound stocks were stored at − 20 °C. Inhibition of OCT1- or OCT2-mediated ASP uptake by anti-malarials was performed in poly-D-lysine coated 96-wells plates 2 or 3 days following HEK293 cell transduction. In short, cells were washed with 125 µL 37 °C HBSS containing 10 mM HEPES, pH 7.4. […] ASP transport was stopped by washing with 125 µL ice-cold HBSS-HEPES buffer supplemented with 0.5% BSA.
For each compound, a range of seven concentrations was used to determine the concentration at which ASP uptake was inhibited half maximally (IC50). At least three independent experiments (4 for QN) were performed for each drug in triplicate as described above. […] To generate the final dose–response inhibition curve per anti-malarial, percentage of uptake was averaged for each drug concentration per experiment and the resulting mean ± SEM corresponding to three or four independent experiments were plotted.

The conditions of data set [5]: Ugandan children aged 5–13 years with uncomplicated malaria; (geometric) mean or median; cited from earlier work.
Data set [6] addresses T1, human OCT1. The data set can be described thus: OCT1-mediated cellular import in transduced HEK293 cells (LC-MS/MS). In kind it is cell-based. The settings on record: 10 µM, 15 min, 37 °C. How it is done:
as §1
HEK293 cells were seeded in 24-wells poly-D-lysine coated plates and transduced the subsequent day with OCT1 or OCT2 as described above. Three days following transduction, OCT1- or OCT2-mediated uptake of ten anti-malarials (AMO, ART, ATO, CQ, DHA, LUM, MQ, PQ, PG, and QN) was performed. NMQ served as a positive substrate for both OCT1 and OCT2 import. In short, cells were washed with 400 µL 37 °C HBSS-HEPES buffer followed by adding 150 µL HBSS buffer with 10 µM anti-malarial or NMQ to each well. After incubation for 15 min at 37 °C, import was stopped by washing with 400 µL ice-cold HBSS-HEPES buffer supplemented with 0.5% BSA. Following a second wash with 400 µL ice-cold HBSS-HEPES buffer, cells were lysed with 200 µL 50% (v/v) MeOH and 0.1% (v/v) formic acid (HCOOH) in water and samples were sent for quantification by mass spectrometry analysis (see “LC–MS/MS quantification of anti-malarials” section). […]
(§2) The affinity (KM) and maximum transport rate (Vmax) for OCT1 and OCT2 of PG were determined by analysing concentration-dependent uptake data from three independent experiments.
Import and export of PG and cycloguanil (CG) was assessed by single and double transduced HEK293 cells. […] Following the same procedure as for the cellular import assay described above, the import of 100 µM PG and CG was measured after 5 min incubation and data was plotted as mean pmol/mg/min ± SEM. […] Significant reduction in uptake (i.e. export by MATEs) was determined using ln transformation and a one-way repeated measures ANOVA with Dunnet’s post test.
Anti-malarial concentration in the cell lysates was quantified using an LC–MS/MS system consisting of a UPLC, a binary solvent manager, a vacuum degasser and an autosampler, coupled to a Xevo TQ-S micro triple quadrupole mass spectrometer. […]

Data set [7] has as its target T2, human OCT2. As to the kind of experiment: OCT2-mediated cellular import in transduced HEK293 cells (LC-MS/MS). In kind it is cell-based. Conditions: 10 µM, 15 min, 37 °C. How it is done: as §1
HEK293 cells were seeded in 24-wells poly-D-lysine coated plates and transduced the subsequent day with OCT1 or OCT2 as described above. Three days following transduction, OCT1- or OCT2-mediated uptake of ten anti-malarials (AMO, ART, ATO, CQ, DHA, LUM, MQ, PQ, PG, and QN) was performed. […] Following a second wash with 400 µL ice-cold HBSS-HEPES buffer, cells were lysed with 200 µL 50% (v/v) MeOH and 0.1% (v/v) formic acid (HCOOH) in water and samples were sent for quantification by mass spectrometry analysis (see “LC–MS/MS quantification of anti-malarials” section). […]
as §2
Import and export of PG and cycloguanil (CG) was assessed by single and double transduced HEK293 cells. […] Following the same procedure as for the cellular import assay described above, the import of 100 µM PG and CG was measured after 5 min incubation and data was plotted as mean pmol/mg/min ± SEM. […] Significant reduction in uptake (i.e. export by MATEs) was determined using ln transformation and a one-way repeated measures ANOVA with Dunnet’s post test. […]

Substrate in data set [8]: [H]/N=C(\N/C(=N/[H])Nc1ccc(Cl)cc1)NC(C)C
As to the kind of experiment: OCT1-mediated cellular import in transduced HEK293 cells (LC-MS/MS). In kind it is cell-based, human. Conditions: other: 1 min incubation, 37 °C, 2.0–16 µM, pH 7.4. How it is done:
HEK293 cells were modified to transiently express (a combination of) human OCT1, OCT2, MATE1, MATE2-K, or eYFP. Briefly, cDNA of the respective genes was cloned downstream of a CMV promoter into a baculovirus, of which passage three was used to transduce HEK293 cells. These cells were seeded in poly-D-lysine coated 24- or 96-wells plates and grown in a 37 °C incubator at 5% CO2. Growth was initiated at ~ 25% confluency using 375 or 125 μL cell and complete medium (DMEM + GlutaMAX™-I supplemented with 10% fetal bovine serum) suspension per well, respectively. […]
HEK293 cells were seeded in 24-wells poly-D-lysine coated plates and transduced the subsequent day with OCT1 or OCT2 as described above. […] Following a second wash with 400 µL ice-cold HBSS-HEPES buffer, cells were lysed with 200 µL 50% (v/v) MeOH and 0.1% (v/v) formic acid (HCOOH) in water and samples were sent for quantification by mass spectrometry analysis (see “LC–MS/MS quantification of anti-malarials” section). […]
as §2
Import and export of PG and cycloguanil (CG) was assessed by single and double transduced HEK293 cells. […]

Setting [9] is: 50 µM anti-malarial, 10 µM ASP, 10 min, 37 °C, relative to solvent control fixed at 100%.

Counter-ions that a name gives are not always drawn. Like-named read-outs stand apart in the source and are kept apart here. Marks after values point to notes of the source that are not given here.

As usually defined, the Cmax is the highest concentration seen after dosing. As usually defined, the IC50 is the point on the concentration scale where inhibition reaches its midpoint. In general, Km refers to the concentration of substrate that gives half-maximal velocity.

For `CCN(CC)Cc1cc(Nc2ccnc3cc(Cl)ccc23)ccc1O` [Amodiaquine, amodiaquine dihydrochloride dehydrate], the Cmax in data set [1] was 0.015 µM; in data set [5], 5.2^c [45] ng/mL. Moreover, the Unbound fraction in data set [2] is 0.1 [46]. For the same molecule, the “Relative ASP uptake (OCT1-mediated)” value in data set [3] turned out to be 67 ± 4%. Also, in data set [4] (10 µM ASP, 10 min, 37 °C, seven concentrations), the IC50 was 11 µM. Besides, the “Relative ASP uptake (OCT2-mediated)” value in data set [4] (setting [9]) is 12.1 ± 0.6%.

As for `C[C@@H]1CC[C@H]2[C@@H](C)C(=O)O[C@@H]3O[C@@]4(C)CC[C@@H]1[C@]32OO4` [Artemisinin, artemisinin], the “Relative ASP uptake (OCT2-mediated)” value in data set [4] (setting [9]) came to 61 ± 13%.

Take `CCN(CC)CCCC(C)Nc1ccnc2cc(Cl)ccc12` (centres unmarked) [Chloroquine, chloroquine diphosphate]: in data set [4], the “Relative ASP uptake (OCT2-mediated)” value was 48 ± 11%.

As for `OC(c1cc(C(F)(F)F)nc2c(C(F)(F)F)cccc12)C1CCCCN1` (centres unmarked) [Mefloquine, mefloquine hydrochloride], in data set [3], the “Relative ASP uptake (OCT1-mediated)” value stood at 150 ± 21%.

Take `C=C[C@H]1C[N+]2(C)CC[C@H]1C[C@@H]2[C@@H](O)c1ccnc2ccc(OC)cc12` [NMQ, N-methyl-quinidine]: the “Uptake by OCT1, percentage of mock-transduced control” value in data set [6] is reported as “taken up”. Besides, in data set [7], the “Uptake by OCT2, percentage of mock-transduced control” value is given as “taken up”.

Regarding `COc1cc(NC(C)CCCN)c2ncccc2c1` (centres unmarked) [Primaquine, primaquine diphosphate], the “Relative ASP uptake (OCT1-mediated)” value in data set [3] came out at 59 ± 3%. The “Relative ASP uptake (OCT2-mediated)” value in data set [4] (setting [9]) stood at 60 ± 7%.

B1: human OCT1 (Homo sapiens) (protein)
chain: T1 sequence (O15245 1-554)
notes: host or cells: HEK293, baculovirus transduction (CMV promoter), transient
With B1, in data set [8], the Km was determined as 8.1 µM.

These data come from publication PMC5654082 (Malaria Journal, 2017).
